This note sets out measurements from ChEMBL document CHEMBL1201862, “PubChem BioAssay data set” (2004).

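96-well plates; 48 h exposure; 5 concentrations. Endpoints by linear interpolation between flanking doses. Not reached: highest tested concentration assigned. GI50 is the concentration that inhibits growth by half.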 Active and inactive are the calls of the source. No stated cut-off is given here; in the data, active = GI50 up to about 1.1 µM and inactive = higher.

What all share (assay): inhibition of tumour cell growth, NCI panel, 48 h
For assay [1], the system named is RPMI-8226.
In assay [2] the test system is SF-539.
Assay [3] relates to HCT-15.
Assay [4] has as its system NCI-H226.
Assay [5] has as its system SR.
The subject of assay [6] is LXFL 529.
In assay [7] the test system is OVCAR-5.
The subject of assay [8] is HOP-18.
In assay [9] the test system is M19-MEL.
Assay [10] has as its system DMS-114.
Assay [11] relates to HCC 2998.
The test system of assay [12] is HOP-62.
The subject of assay [13] is OVCAR-8.
In assay [14] the test system is SW-620.
In assay [15] the test system is M14.
The test system of assay [16] is UACC-257.
The test system of assay [17] is EKVX.
In assay [18] the test system is DMS-273.
In assay [19] the test system is CCRF-CEM.
Assay [20] deals with HL-60.

Consider `OC12c3ccccc3C1CCCCCCCCCC21OCCCO1` (stereo not given), for which the GI50 in assay [1] was > 100 µM (inactive); in [2], > 100 µM (inactive); in assay [3], 5.15 µM; in assay [4], > 100 µM (inactive); in assay [5] it was 4.73 µM (inactive); in assay [6] it was > 100 µM (inactive). Further, the GI50 in assay [7], in assay [8], in assay [9], in [10], in assay [11] and in [12] was > 100 µM (inactive) in each case. The GI50 in assay [13], in assay [14], in assay [15], in assay [16], in [17] and in [18] was > 100 µM (inactive) each time. Further, the GI50 in assay [19] is > 100 µM (inactive); in assay [20], 4.15 µM (inactive).
With `CCN(CC)CCC(=O)c1ccccc1`, the GI50 in assay [1] was 2.85 µM (inactive); in assay [2], 24.8 µM (inactive); in assay [3] it was 20.1 µM; in [4] it was > 100 µM (inactive); in assay [5] it was 14 µM (inactive); in [6] it was 17.8 µM (inactive). The GI50 in assay [7] is 21.5 µM (inactive); in assay [8] it was 15.3 µM (inactive); in assay [9], 25.6 µM (inactive); in assay [10] it was 20.3 µM (inactive); in [11], 56 µM (inactive); in assay [12], > 100 µM (inactive). The GI50 is 24.2 µM (inactive) in assay [13]; 19.6 µM (inactive) in [14]; 16.8 µM (inactive) in assay [15]; 24.2 µM (inactive) in assay [16]; 60 µM (inactive) in [17]; 18.5 µM (inactive) in assay [18]. Besides, the GI50 was 6.21 µM (inactive) in assay [19] and 12.6 µM (inactive) in assay [20].
